Strand notation (5' to 3'): a small letter for the sugar, then the base; units joined by * are phosphorothioate-linked, units joined directly phosphodiester-linked; [ ] holds rarer units or linkages, { } end groups; capitals alone tell only the bases. e = 2'-O-(2-methoxyethyl) (MOE); [5mC] = 5-methylcytosine; d = 2'-deoxy (DNA)
How the values were obtained:
human PKK mRNA [1] = test: Antisense inhibition of human PKK mRNA in HepaRG cells, 5,000 nM (Example 2); type: cell-based
Procedure, shortened: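 HepaRG cells, 20,000 per well, were electroporated with 5,000 nM MOE gapmer (phosphorothioate, 5-methylcytosine) and incubated about 24 hours. PKK mRNA was quantified by qRT-PCR with primer probe set RTS3454, normalized to RIBOGREEN total RNA, and expressed as percent inhibition versus untreated controls.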

human PKK mRNA [2] = test: Dose-dependent antisense inhibition of human PKK in HepaRG cells, 0.19-5.00 uM (Example 5); type: cell-based; conditions: for percent inhibition of PKK mRNA, 0.19 μM: 0.19 μM antisense oligonucleotide; for percent inhibition of PKK mRNA, 0.56 μM: 0.56 μM antisense oligonucleotide; for percent inhibition of PKK mRNA, 1.67 μM: 1.67 μM antisense oligonucleotide; for percent inhibition of PKK mRNA, 5.00 μM: 5.00 μM antisense oligonucleotide
Description: Cells were plated at a density of 20,000 cells per well and transfected using electroporation with 0.19 μM, 0.56 μM, 1.67 μM, and 5.00 μM concentrations of antisense oligonucleotide. After a treatment period of approximately 16 hours, RNA was isolated from the cells and PKK mRNA levels were measured by quantitative real-time PCR. Human PKK primer probe set RTS3454 was used to measure mRNA levels. PKK mRNA levels were adjusted according to total RNA content, as measured by RIBOGREEN®. The antisense oligonucleotides were tested in a series of experiments that had similar culture conditions.
The half maximal inhibitory concentration (IC50) of each oligonucleotide is also presented.

[3] = Table 34, HepaRG, electroporation, ~16 h
[4] = Table 34, PKK mRNA, HepaRG, electroporation, ~16 h
[5] = Table 7, HepaRG cells, electroporation with 5,000 nM antisense oligonucleotide, approx. 24 hours, PKK mRNA by RT-PCR (RTS3454), relative to untreated control cells
[6] = HepaRG cells, electroporation, approximately 16 hours, Table 40
[7] = 4 point dose response, HepaRG cells, Table 40
[8] = HepaRG cells, electroporation, approximately 16 hours, Table 36
[9] = 4 point dose response, HepaRG cells, Table 36
[10] = HepaRG cells, electroporation with 5,000 nM antisense oligonucleotide, approximately 24 hours, PKK mRNA by RT-PCR (RTS3454), relative to untreated control cells, Table 6 experiment
[11] = HepaRG cells, electroporation, approximately 16 hours, Table 37
[12] = 4 point dose response, HepaRG cells, Table 37
[13] = Table 8, HepaRG cells, electroporation with 5,000 nM antisense oligonucleotide, approx. 24 hours, PKK mRNA by RT-PCR (RTS3454), relative to untreated control cells
[14] = HepaRG cells, electroporation, approximately 16 hours, Table 35
[15] = HepaRG cells, electroporation, approximately 16 hours, Table 38

547456 (antisense eG*e[5mC]*eG*eA*eT*dA*dT*d[5mC]*dA*dT*dG*dA*dT*dT*d[5mC]*e[5mC]*e[5mC]*eT*eT*e[5mC]) [compound 547456]
% inhibition (human PKK mRNA [1]; Table 9 experiment, HepaRG cells, 20,000 cells per well, electroporation with 5,000 nM antisense oligonucleotide, approx. 24 hours, PKK mRNA by RT-PCR (RTS3454), relative to untreated control cells): 89%
% inhibition (human PKK mRNA [1]; Table 10 experiment, HepaRG cells, 20,000 cells per well, electroporation with 5,000 nM antisense oligonucleotide, approx. 24 hours, PKK mRNA by RT-PCR (RTS3454), relative to untreated control cells): 96%
percent inhibition of PKK at 0.19 μM (human PKK mRNA [2]; [3]): 12%
percent inhibition of PKK at 0.56 μM (human PKK mRNA [2]; [3]): 67%
percent inhibition of PKK at 1.67 μM (human PKK mRNA [2]; [3]): 66%
percent inhibition of PKK at 5.00 μM (human PKK mRNA [2]; [3]): 80%
IC50 (human PKK mRNA [2]; [4]): 1 µM

547374 (eG*eA*eT*eA*eG*dG*dT*dG*d[5mC]*dA*dG*dA*dT*dG*dG*eT*e[5mC]*e[5mC]*eG*eA; antisense) [compound 547374]
% inhibition (human PKK mRNA [1]; [5]): 81%
percent inhibition of PKK at 0.19 μM (human PKK mRNA [2]; [6]): 0%
percent inhibition of PKK at 0.56 μM (human PKK mRNA [2]; [6]): 15%
percent inhibition of PKK at 1.67 μM (human PKK mRNA [2]; [6]): 24%
percent inhibition of PKK at 5.00 μM (human PKK mRNA [2]; [6]): 44%
IC50 (human PKK mRNA [2]; [7]): > 5 µM

547493 (antisense eT*e[5mC]*eT*eG*eA*dG*d[5mC]*dT*dT*dT*dT*d[5mC]*d[5mC]*dA*dT*e[5mC]*eA*e[5mC]*eT*eG) [compound 547493]
% inhibition (human PKK mRNA [1]; HepaRG cells, electroporation, 5,000 nM antisense oligonucleotide, approx. 24 hours, primer probe set RTS3454, relative to untreated control cells, Table 11): 72%
percent inhibition of PKK at 0.19 μM (human PKK mRNA [2]; [6]): 0%
percent inhibition of PKK at 0.56 μM (human PKK mRNA [2]; [6]): 26%
percent inhibition of PKK at 1.67 μM (human PKK mRNA [2]; [6]): 64%
percent inhibition of PKK at 5.00 μM (human PKK mRNA [2]; [6]): 77%
IC50 (human PKK mRNA [2]; [7]): 1.3 µM

547617 (antisense e[5mC]*eT*eG*eT*e[5mC]*d[5mC]*dT*dA*dT*dA*dT*d[5mC]*dA*d[5mC]*dT*eG*eT*eA*e[5mC]*e[5mC]) [compound 547617]
% inhibition (human PKK mRNA [1]; human PKK mRNA in HepaRG cells, 5-10-5 gapmers, Table 14): 91%
percent inhibition of PKK at 0.19 μM (human PKK mRNA [2]; [8]): 52%
percent inhibition of PKK at 0.56 μM (human PKK mRNA [2]; [8]): 66%
percent inhibition of PKK at 1.67 μM (human PKK mRNA [2]; [8]): 77%
percent inhibition of PKK at 5.00 μM (human PKK mRNA [2]; [8]): 93%
IC50 (human PKK mRNA [2]; [9]): 0.2 µM
percent inhibition of PKK mRNA, 0.19 μM (human PKK mRNA [2]; HepaRG cells): 17%
percent inhibition of PKK mRNA, 0.56 μM (human PKK mRNA [2]; HepaRG cells): 37%
percent inhibition of PKK mRNA, 1.67 μM (human PKK mRNA [2]; HepaRG cells): 79%
percent inhibition of PKK mRNA, 5.00 μM (human PKK mRNA [2]; HepaRG cells): 98%
IC50 (human PKK mRNA [2]; HepaRG cells, 0.19-5.00 μM): 0.7 µM

547349 (antisense e[5mC]*eT*eT*e[5mC]*eA*dA*d[5mC]*dA*d[5mC]*dT*dG*d[5mC]*dT*dA*dA*e[5mC]*e[5mC]*eT*eT*eA) [compound 547349]
% inhibition (human PKK mRNA [1]; [10]): 88%
percent inhibition of PKK at 0.19 μM (human PKK mRNA [2]; [11]): 0%
percent inhibition of PKK at 0.56 μM (human PKK mRNA [2]; [11]): 8%
percent inhibition of PKK at 1.67 μM (human PKK mRNA [2]; [11]): 66%
percent inhibition of PKK at 5.00 μM (human PKK mRNA [2]; [11]): 76%
IC50 (human PKK mRNA [2]; [12]): 1.6 µM

547445 (antisense eG*e[5mC]*e[5mC]*eA*e[5mC]*dT*dA*dT*dA*dG*dA*dT*dG*d[5mC]*dG*e[5mC]*e[5mC]*eA*eA*eA) [compound 547445]
% inhibition (human PKK mRNA [1]; [13]): 97%
percent inhibition of PKK at 5.00 μM (human PKK mRNA [2]; HepaRG cells, electroporation, approximately 16 hours, Table 41): 91%
percent inhibition of PKK at 0.19 0μM (human PKK mRNA [2]; 0.19 0μM, HepaRG cells, electroporation, approximately 16 hours, Table 41): 80%
percent inhibition of PKK at 0.56 0μM (human PKK mRNA [2]; 0.56 0μM, HepaRG cells, electroporation, approximately 16 hours, Table 41): 87%
percent inhibition of PKK at 1.67 1μM (human PKK mRNA [2]; 1.67 1μM, HepaRG cells, electroporation, approximately 16 hours, Table 41): 98%
IC50 (human PKK mRNA [2]; 4 point dose response, HepaRG cells, Table 41): < 0.2 µM
percent inhibition of PKK at 0.19 μM (human PKK mRNA [2]; [3]): 41%
percent inhibition of PKK at 0.56 μM (human PKK mRNA [2]; [3]): 75%
percent inhibition of PKK at 1.67 μM (human PKK mRNA [2]; [3]): 82%
percent inhibition of PKK at 5.00 μM (human PKK mRNA [2]; [3]): 88%
IC50 (human PKK mRNA [2]; [4]): 0.2 µM

547373 (eG*e[5mC]*eA*eG*eA*dT*dG*dG*dT*d[5mC]*d[5mC]*dG*dA*d[5mC]*dA*e[5mC]*eA*e[5mC]*eA*eA; antisense) [compound 547373]
% inhibition (human PKK mRNA [1]; [5]): 90%
percent inhibition of PKK at 0.19 μM (human PKK mRNA [2]; [8]): 20%
percent inhibition of PKK at 0.56 μM (human PKK mRNA [2]; [8]): 7%
percent inhibition of PKK at 1.67 μM (human PKK mRNA [2]; [8]): 49%
percent inhibition of PKK at 5.00 μM (human PKK mRNA [2]; [8]): 86%
IC50 (human PKK mRNA [2]; [9]): 1.1 µM

547335 (antisense eT*eT*eA*eT*eA*dA*dA*dT*dG*dT*d[5mC]*dT*d[5mC]*dG*dA*eT*eG*eG*e[5mC]*eA) [compound 547335]
% inhibition (human PKK mRNA [1]; [10]): 93%
percent inhibition of PKK at 0.19 μM (human PKK mRNA [2]; [14]): 8%
percent inhibition of PKK at 0.56 μM (human PKK mRNA [2]; [14]): 52%
percent inhibition of PKK at 1.67 μM (human PKK mRNA [2]; [14]): 85%
percent inhibition of PKK at 5.00 μM (human PKK mRNA [2]; [14]): 92%
IC50 (human PKK mRNA [2]; 4 point dose response, HepaRG cells, Table 35): 0.7 µM
percent inhibition of PKK mRNA, 0.19 μM (human PKK mRNA [2]; HepaRG cells): 0%
percent inhibition of PKK mRNA, 0.56 μM (human PKK mRNA [2]; HepaRG cells): 13%
percent inhibition of PKK mRNA, 1.67 μM (human PKK mRNA [2]; HepaRG cells): 73%
percent inhibition of PKK mRNA, 5.00 μM (human PKK mRNA [2]; HepaRG cells): 95%
IC50 (human PKK mRNA [2]; HepaRG cells, 0.19-5.00 μM): 1.3 µM

547731 (eG*eG*eA*eT*eT*dG*dG*dT*dG*dG*dT*dG*dG*dG*dA*eT*eT*eG*eG*eT; antisense) [compound 547731]
% inhibition (human PKK mRNA [1]; HepaRG cells, 5,000 nM antisense oligonucleotide, 5-10-5 gapmers, Table 17): 49%
percent inhibition of PKK at 0.19 μM (human PKK mRNA [2]; [11]): 0%
percent inhibition of PKK at 0.56 μM (human PKK mRNA [2]; [11]): 0%
percent inhibition of PKK at 1.67 μM (human PKK mRNA [2]; [11]): 17%
percent inhibition of PKK at 5.00 μM (human PKK mRNA [2]; [11]): 56%
IC50 (human PKK mRNA [2]; [12]): 5 µM

547277 (antisense e[5mC]*eA*e[5mC]*eA*eA*dT*dT*dG*d[5mC]*dT*dT*d[5mC]*dT*dT*dG*eG*eA*eG*eG*eT) [compound 547277]
% inhibition (human PKK mRNA [1]; HepaRG cells, electroporation with 5,000 nM antisense oligonucleotide, approximately 24 hours, PKK mRNA by RT-PCR (RTS3454), relative to untreated control cells, Table 5 experiment): 75%
percent inhibition of PKK at 0.19 μM (human PKK mRNA [2]; [6]): 2%
percent inhibition of PKK at 0.56 μM (human PKK mRNA [2]; [6]): 32%
percent inhibition of PKK at 1.67 μM (human PKK mRNA [2]; [6]): 34%
percent inhibition of PKK at 5.00 μM (human PKK mRNA [2]; [6]): 62%
IC50 (human PKK mRNA [2]; [7]): 2.8 µM

546287 (antisense eG*eT*eT*eG*eT*d[5mC]*d[5mC]*d[5mC]*d[5mC]*dA*dG*dT*dG*dT*dT*eA*e[5mC]*eA*e[5mC]*eA) [compound 546287]
% inhibition (human PKK mRNA [1]; [13]): 82%
percent inhibition of PKK at 0.19 μM (human PKK mRNA [2]; [15]): 0%
percent inhibition of PKK at 0.56 μM (human PKK mRNA [2]; [15]): 15%
percent inhibition of PKK at 1.67 μM (human PKK mRNA [2]; [15]): 39%
percent inhibition of PKK at 5.00 μM (human PKK mRNA [2]; [15]): 89%
IC50 (human PKK mRNA [2]; 4 point dose response, HepaRG cells, Table 38): 1.7 µM

Source: US11840686B2, “Modulation of prekallikrein (PKK) expression” (Ionis Pharmaceuticals, Inc., priority 2013, dated 2023)
